Experimental data taken from patent publication US8518944B2, “Compounds as casein kinase inhibitors” (Pfizer Inc., priority 2009, dated 2013).
Counter-ions that a name gives are not always drawn.

Columns and labels:
CK1ε wild type enzyme = CK1ε wild type enzyme (Homo sapiens, UniProt P49674); assay: CK1ε kinase assay (Kinase-Glo luminescence); type: biochemical; details: ATP 10 μM, CK1ε wild type enzyme 2.5 nM, peptide substrate 42 μM, 25° C., 70 minutes; values marked * are geometric mean of 5-16 determinations; read-out: CKIε IC50 (nM), geometric mean of 2-4 determinations
CK1ε wild type enzyme, sequence (P49674 whole entry): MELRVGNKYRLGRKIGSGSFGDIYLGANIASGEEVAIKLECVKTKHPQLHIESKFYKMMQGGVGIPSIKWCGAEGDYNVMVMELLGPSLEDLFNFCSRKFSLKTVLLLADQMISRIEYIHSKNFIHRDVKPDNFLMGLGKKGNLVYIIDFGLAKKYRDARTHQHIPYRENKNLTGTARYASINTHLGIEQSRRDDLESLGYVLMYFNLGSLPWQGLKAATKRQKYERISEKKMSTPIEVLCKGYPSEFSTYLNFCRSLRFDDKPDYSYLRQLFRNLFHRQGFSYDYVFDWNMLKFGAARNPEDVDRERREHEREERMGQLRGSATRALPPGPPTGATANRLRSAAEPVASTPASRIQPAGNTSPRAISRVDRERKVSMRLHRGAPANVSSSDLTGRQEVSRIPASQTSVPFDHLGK
Description: The CK1ε kinase assay was performed in a standard buffer containing ATP at 10 μM, CK1ε wild type enzyme at 2.5 nM, and 42 μM concentration of the peptide substrate PLSRTLpSVASLPGL (Flotow et al., 1990). The reaction was incubated at 25° C. for 70 minutes. Enzyme inhibition was measured in the presence of 1 μL of the CK1ε inhibitor, or 4% DMSO. Detection was carried out as described for the Kinase-Glo Assay (Promega). Luminescent output was measured on the PerkinElmer EnVision plate reader (PerkinElmer, Waltham, Mass.).

CK1δ = CK1δ (Homo sapiens, UniProt P48730); assay: CK1δ kinase assay (Kinase-Glo luminescence); type: biochemical; details: ATP 10 μM, CK1δ enzyme 2 nM, peptide substrate 42 μM, 25° C., 85 minutes; values marked * are geometric mean of 5-16 determinations; read-out: CKIδ IC50 (nM), geometric mean of 2-4 determinations
CK1δ, sequence (P48730 whole entry): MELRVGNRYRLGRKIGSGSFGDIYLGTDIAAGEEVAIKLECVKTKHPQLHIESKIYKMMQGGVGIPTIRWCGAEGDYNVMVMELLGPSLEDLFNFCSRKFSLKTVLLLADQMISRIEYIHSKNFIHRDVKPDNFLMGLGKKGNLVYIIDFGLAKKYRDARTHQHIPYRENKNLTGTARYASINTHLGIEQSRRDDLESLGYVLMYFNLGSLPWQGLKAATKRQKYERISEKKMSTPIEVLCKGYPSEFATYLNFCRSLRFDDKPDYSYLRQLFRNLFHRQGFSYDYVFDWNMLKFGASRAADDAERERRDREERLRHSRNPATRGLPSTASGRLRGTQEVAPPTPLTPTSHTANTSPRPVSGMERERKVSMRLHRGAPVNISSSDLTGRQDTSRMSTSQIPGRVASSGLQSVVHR
Description: The CK1δ kinase assay was performed in a standard buffer containing ATP at 10 μM, CK1δ enzyme at 2 nM, and the peptide substrate PLSRTLpSVASLPGL at 42 μM. The reaction was incubated at 25° C. for 85 minutes. Enzyme inhibition was performed in the presence of either 1 μL of CK1δ inhibitor, or 4% DMSO. Detection of luminescent output on a PerkinElmer EnVision plate reader (PerkinElmer, Waltham, Mass.) was performed as described for the Kinase-Glo Assay (Promega).

| SMILES | IC50 (CK1ε wild type enzyme) | IC50 (CK1δ) |
| --- | --- | --- |
| Cc1cc(CN2CCC(n3cnc(-c4ccc(F)cc4)c3-c3ccncn3)CC2)no1 [Example 29, 4-[4-(4-fluorophenyl)-1-{1-[(5-methylisoxazol-3-yl)methyl]piperidin-4-yl}-1H-imidazol-5-yl]pyrimidine] | 268 nM | 38.8 nM |
| CNc1nccc(-c2c(-c3ccccc3)ncn2C2CCN(Cc3ncccn3)CC2)n1 [Example 12, N-Methyl-4-{4-phenyl-1-[1-(pyrimidin-2-ylmethyl)piperidin-4-yl]-1H-imidazol-5-yl}pyrimidin-2-amine] | 660 nM | 191 nM |
| Nc1nccc(-c2c(-c3ccc(F)cc3)ncn2C2CCN(Cc3cncs3)CC2)n1 [Example 19, 4-{4-(4-fluorophenyl)-1-[1-(1,3-thiazol-5-ylmethyl)piperidin-4-yl]-1H-imidazol-5-yl}pyrimidin-2-amine, trifluoroacetate salt] | 99.9 nM | 26.8 nM |
| Nc1nccc(-c2c(-c3ccccc3)ncn2C2CCN(Cc3ccon3)CC2)n1 [Example 13, 4-{1-[1-(Isoxazol-3-ylmethyl)piperidin-4-yl]-4-phenyl-1H-imidazol-5-yl}pyrimidin-2-amine, hydrochloride salt] | 40.9 nM | 8.22 nM |
| Fc1ccc(-c2ncn(C3CCN(Cc4cn5ccccc5n4)C3)c2-c2ccncn2)cc1 (centres unmarked) [Example 39, 2-({3-[4-(4-fluoro-phenyl)-5-pyrimidin-4-yl-1H-imidazol-1-yl]pyrrolidin-1-yl}methyl)imidazo[1,2-a]pyridine, trifluoroacetate salt] | 644 nM | 211 nM |
| c1ccc(-c2ncn(C3CCN(Cc4ncccn4)CC3)c2-c2ccncn2)cc1 [Example 11, 2-{[4-(4-Phenyl-5-pyrimidin-4-yl-1H-imidazol-1-yl)piperidin-1-yl]methyl}pyrimidine] | > 3660 nM | 790 nM |
| Fc1ccc(-c2ncn(C3CCN(Cc4ccon4)CC3)c2-c2ccncn2)cc1 [Example 6, 4-{4-(4-Fluorophenyl)-1-[1-(isoxazol-3-ylmethyl)piperidin-4-yl]-1H-imidazol-5-yl}pyrimidine, hydrochloride salt] | 126 nM | 24 nM |
| Cc1c(CN2CCC(n3cnc(-c4ccc(F)cc4)c3-c3ccncn3)C2)nc2ccccn12 (centres unmarked) [Example 41, 2-({3-[4-(4-fluorophenyl)-5-pyrimidin-4-yl-1H-imidazol-1-yl]pyrrolidin-1-yl}methyl)-3-methylimidazo[1,2-a]pyridine, trifluoroacetate salt] | 1990 nM | 595 nM |
| Cc1nc(-c2ccc(F)cc2)c(-c2ccncn2)n1C1CCN(Cc2ccon2)CC1 [Example 14, 4-{4-(4-Fluorophenyl)-1-[1-(isoxazol-3-ylmethyl)piperidin-4-yl]-2-methyl-1H-imidazol-5-yl}pyrimidine] | 829 nM | 140 nM |
| COCCc1ncc(CN2CCC(n3cnc(-c4ccc(F)cc4)c3-c3ccncn3)C2)cn1 (centres unmarked) [Example 42, 5-({3-[4-(4-fluorophenyl)-5-pyrimidin-4-yl-1H-imidazol-1-yl]pyrrolidin-1-yl}methyl)-2-(2-methoxyethyl)pyrimidine, trifluoroacetate salt] | 1530 nM | 679 nM |
| CCc1csc(CN2CCC(n3cnc(-c4ccc(F)cc4)c3-c3ccnc(N)n3)CC2)n1 [Example 24, 4-[1-{1-[(4-ethyl-1,3-thiazol-2-yl)methyl]piperidin-4-yl}-4-(4-fluorophenyl)-1H-imidazol-5-yl]pyrimidin-2-amine, trifluoroacetate salt] | 382 nM | 83.7 nM |
| Cc1cc(C)c(CN2CCC(n3cnc(-c4ccc(F)cc4)c3-c3ccnc(N)n3)C2)cn1 (centres unmarked) [Example 37, 4-[1-{1-[(4,6-dimethylpyridin-3-yl)methyl]pyrrolidin-3-yl}-4-(4-fluorophenyl)-1H-imidazol-5-yl]pyrimidin-2-amine] | 124 nM | 46.6 nM |
| CNc1nccc(-c2c(-c3ccc(F)cc3)ncn2C2CCN(C(C)c3ccon3)CC2)n1 (centres unmarked) [Example 2, 4-{4-(4-Fluorophenyl)-1-[1-(1-isoxazol-3-ylethyl)piperidin-4-yl]-1H-imidazol-5-yl}-N-methylpyrimidin-2-amine] | 67.4 nM | 16.7 nM |
| Nc1nccc(-c2c(-c3ccc(F)cc3)ncn2C2CCN(Cc3ccc(C(F)(F)F)nc3)CC2)n1 [Example 18, 4-[4-(4-fluorophenyl)-1-(1-{[6-(trifluoromethyl)pyridin-3-yl]methyl}piperidin-4-yl)-1H-imidazol-5-yl]pyrimidin-2-amine, trifluoroacetate salt] | 394 nM | 80.7 nM |
| Cc1nc2ccccc2nc1CN1CCC(n2cnc(-c3ccc(F)cc3)c2-c2ccnc(N)n2)CC1 [Example 17, 4-[4-(4-fIuorophenyl)-1-{1-[(3-methylquinoxalin-2-yl)methyl]piperidin-4-yl}-1H-imidazol-5-yl]pyrimidin-2-amine, trifluoroacetate salt] | 144 nM | 32.1 nM |
| Fc1ccc(-c2ncn(C3CCN(Cc4cnc5ccnn5c4)C3)c2-c2ccncn2)cc1 (centres unmarked) [Example 40, 6-({3-[4-(4-fluorophenyl)-5-pyrimidin-4-yl-1H-imidazol-1-yl]pyrrolidin-1-yl}methyl)pyrazolo[1,5-a]pyrimidine, trifluoroacetate salt] | 798 nM | 178 nM |
| Cc1cc(CN2CCC(n3cnc(-c4ccc(F)cc4)c3-c3ccnc(N)n3)CC2)ccn1 [Example 21, 4-[4-(4-fluorophenyl)-1-{1-[(2-methylpyridin-4-yl)methyl]piperidin-4-yl}-1H-imidazol-5-yl]pyrimidin-2-amine, trifluoroacetate salt] | 59.8 nM | 13 nM |
| COc1ccc(CN2CCC(n3cnc(-c4ccc(F)cc4)c3-c3ccnc(N)n3)CC2)cn1 [Example 22, 4-[4-(4-fluorophenyl)-1-{1-[(6-methoxypyridin-3-yl)methyl]piperidin-4-yl}-1H-imidazol-5-yl]pyrimidin-2-amine, trifluoroacetate salt] | 482 nM | 83.6 nM |
| C[C@H](c1ccon1)N1CCC(n2cnc(-c3ccc(F)cc3)c2-c2ccncn2)CC1 (single isomer, unassigned) [Example 9] | 1360 nM | 281 nM |
| c1ccc(-c2ncn(C3CCN(Cc4ccon4)CC3)c2-c2ccncn2)cc1 [Example 16, 4-{1-[1-(isoxazol-3-ylmethyl)piperidin-4-yl]-4-phenyl-1H-imidazol-5-yl}pyrimidine] | 327 nM | 42.8 nM |
| Nc1nccc(-c2c(-c3ccc(F)cc3)ncn2C2CCN(Cc3ccc4nccnc4c3)C2)n1 (centres unmarked) [Example 35, 4-{4-(4-fluorophenyl)-1-[1-(quinoxalin-6-ylmethyl)pyrrolidin-3-yl]-1H-imidazol-5-yl}pyrimidin-2-amine] | 170 nM | 67.8 nM |
| Nc1nccc(-c2c(-c3ccc(F)cc3)ncn2C2CCN(Cc3ncccn3)CC2)n1 [Example 3, 4-{4-(4-Fluorophenyl)-1-[1-(pyrimidin-2-ylmethyl)piperidin-4-yl]-1H-imidazol-5-yl}pyrimidin-2-amine] | 116 nM | 27.8 nM |
| COc1ncccc1CN1CCC(n2cnc(-c3ccc(F)cc3)c2-c2ccnc(N)n2)CC1 [Example 26, 4-[4-(4-fluorophenyl)-1-{1-[(2-methoxypyridin-3-yl)methyl]piperidin-4-yl}-1H-imidazol-5-yl]pyrimidin-2-amine, trifluoroacetate salt] | 238 nM | 51.9 nM |
| C[C@@H](c1ccon1)N1CCC(n2cnc(-c3ccc(F)cc3)c2-c2ccncn2)CC1 (single isomer, unassigned) [Example 10] | 277 nM | 64.6 nM |
| Cc1cnc(CN2CCC(n3cnc(-c4ccc(F)cc4)c3-c3ccnc(N)n3)C2)c(F)c1 (centres unmarked) [Example 31, 4-[1-{1-[(3-fluoro-5-methylpyridin-2-yl)methyl]pyrrolidin-3-yl}-4-(4-fluorophenyl)-1H-imidazol-5-yl]pyrimidin-2-amine] | 165 nM | 47.6 nM |
| CNc1nccc(-c2c(-c3ccccc3)ncn2C2CCN(Cc3ccon3)CC2)n1 [Example 15, 4-{1-[1-(isoxazol-3-ylmethyl)piperidin-4-yl]-4-phenyl-1H-imidazol-5-yl}-N-methylpyrimidin-2-amine, hydrochloride salt] | 76.1 nM | 18.6 nM |
| Nc1nccc(-c2c(-c3ccc(F)cc3)ncn2C2CCN(Cc3ccnc(C4CC4)n3)CC2)n1 [Example 28, 4-[1-{1-[(2-cyclopropylpyrimidin-4-yl)methyl]piperidin-4-yl}-4-(4-fluorophenyl)-1H-imidazol-5-yl]pyrimidin-2-amine, trifluoroacetate salt] | 351 nM | 54.9 nM |
| Nc1nccc(-c2c(-c3ccc(F)cc3)ncn2C2CCN(Cc3cncc4ccccc34)C2)n1 (centres unmarked) [Example 36, 4-{4-(4-fluorophenyl)-1-[1-(isoquinolin-4-ylmethyl)pyrrolidin-3-yl]-1H-imidazol-5-yl}pyrimidin-2-amine] | 140 nM | 56.3 nM |
